Reference: the NIST ThermoML archive (doi:10.1007/s10765-014-1730-1)

Settings: Vibrating tube method; for specific volume: Gas; for mass density: Liquid

F/C=C\C(F)(F)F [(Z)-1,3,3,3-tetrafluoro-1-propene]
Settings	mass density [kg/m3]	specific volume [m3/kg]
328.15 K, 202.5 kPa	–	0.111
328.15 K, 209.8 kPa	–	0.107
328.15 K, 232.5 kPa	–	0.095
328.15 K, 370.9 kPa	–	0.057
330.15 K, 287.2 kPa	–	0.076
333.15 K, 90.7 kPa	–	0.26
333.15 K, 126.2 kPa	–	0.185
333.15 K, 206.1 kPa	–	0.111
333.15 K, 213.5 kPa	–	0.107
333.15 K, 236.7 kPa	–	0.096
333.15 K, 378.4 kPa	–	0.057
333.15 K, 30992 kPa	1237.9	–
333.15 K, 31993 kPa	1240.4	–
333.16 K, 3769 kPa	1141.2	–
333.16 K, 4787 kPa	1146.4	–
333.16 K, 5795 kPa	1151.4	–
333.16 K, 6804 kPa	1156.2	–
333.16 K, 7816 kPa	1160.8	–
333.16 K, 8825 kPa	1165.2	–
333.16 K, 9828 kPa	1169.5	–
333.16 K, 10837 kPa	1173.6	–
333.16 K, 11848 kPa	1177.7	–
333.16 K, 12859 kPa	1181.6	–
333.16 K, 13868 kPa	1185.4	–
333.16 K, 15876 kPa	1192.7	–
333.16 K, 16881 kPa	1196.2	–
333.16 K, 17896 kPa	1199.7	–
333.16 K, 18911 kPa	1203	–
333.16 K, 19925 kPa	1206.3	–
333.16 K, 20935 kPa	1209.5	–
333.16 K, 21937 kPa	1212.6	–
333.16 K, 23957 kPa	1218.6	–
333.16 K, 24963 kPa	1221.5	–
333.16 K, 25970 kPa	1224.4	–
333.16 K, 26975 kPa	1227.2	–
333.16 K, 27976 kPa	1229.9	–
333.16 K, 28983 kPa	1232.6	–
333.16 K, 29987 kPa	1235.2	–
333.16 K, 32999 kPa	1243	–
333.16 K, 34003 kPa	1245.5	–
333.17 K, 574 kPa	1123.1	–
333.17 K, 754 kPa	1124.2	–
333.17 K, 1756 kPa	1130.2	–
333.17 K, 2756 kPa	1135.8	–
333.17 K, 14875 kPa	1189.1	–
333.17 K, 22950 kPa	1215.6	–
335.15 K, 292.6 kPa	–	0.077
338.15 K, 92.1 kPa	–	0.26
338.15 K, 128.2 kPa	–	0.185
338.15 K, 209.7 kPa	–	0.111
338.15 K, 217.2 kPa	–	0.107
338.15 K, 240.9 kPa	–	0.096
338.15 K, 385.9 kPa	–	0.057
340.15 K, 298 kPa	–	0.077
343.14 K, 680 kPa	1090.7	–
343.14 K, 761 kPa	1091.4	–
343.14 K, 1766 kPa	1098.6	–
343.14 K, 2771 kPa	1105.3	–
343.14 K, 3798 kPa	1111.8	–
343.14 K, 4828 kPa	1117.9	–
343.14 K, 5833 kPa	1123.5	–
343.14 K, 6839 kPa	1129	–
343.14 K, 7846 kPa	1134.2	–
343.14 K, 8850 kPa	1139.2	–
343.14 K, 9856 kPa	1144	–
343.14 K, 10867 kPa	1148.6	–
343.14 K, 11874 kPa	1153.1	–
343.14 K, 12884 kPa	1157.5	–
343.14 K, 13894 kPa	1161.7	–
343.14 K, 14898 kPa	1165.7	–
343.14 K, 15909 kPa	1169.7	–
343.14 K, 16918 kPa	1173.5	–
343.14 K, 17921 kPa	1177.2	–
343.14 K, 18924 kPa	1180.9	–
343.14 K, 19929 kPa	1184.4	–
343.14 K, 20931 kPa	1187.8	–
343.14 K, 21941 kPa	1191.3	–
343.14 K, 22943 kPa	1194.6	–
343.14 K, 24955 kPa	1201	–
343.14 K, 25963 kPa	1204	–
343.14 K, 26970 kPa	1207.1	–
343.14 K, 27977 kPa	1210	–
343.14 K, 28983 kPa	1212.9	–
343.14 K, 29990 kPa	1215.8	–
343.14 K, 30998 kPa	1218.7	–
343.14 K, 32004 kPa	1221.4	–
343.14 K, 34007 kPa	1226.7	–
343.15 K, 93.6 kPa	–	0.26
343.15 K, 130.3 kPa	–	0.185
343.15 K, 213.3 kPa	–	0.111
343.15 K, 220.9 kPa	–	0.107
343.15 K, 245.1 kPa	–	0.096
343.15 K, 393.2 kPa	–	0.057
343.15 K, 23946 kPa	1197.8	–
343.15 K, 33006 kPa	1224.1	–
345.15 K, 303.3 kPa	–	0.077
348.15 K, 95 kPa	–	0.26
348.15 K, 132.4 kPa	–	0.185
348.15 K, 216.8 kPa	–	0.111
348.15 K, 224.6 kPa	–	0.107
348.15 K, 249.2 kPa	–	0.096
348.15 K, 400.6 kPa	–	0.057
350.15 K, 308.6 kPa	–	0.077
353.14 K, 33995 kPa	1208	–
353.15 K, 96.4 kPa	–	0.26
353.15 K, 134.4 kPa	–	0.185
353.15 K, 220.3 kPa	–	0.112
353.15 K, 228.3 kPa	–	0.107
353.15 K, 253.3 kPa	–	0.096
353.15 K, 407.8 kPa	–	0.057
353.15 K, 3719 kPa	1080.1	–
353.15 K, 14840 kPa	1141.7	–
353.15 K, 15847 kPa	1146.1	–
353.15 K, 16854 kPa	1150.3	–
353.15 K, 18882 kPa	1158.4	–
353.15 K, 19886 kPa	1162.3	–
353.15 K, 20899 kPa	1166.1	–
353.15 K, 22916 kPa	1173.4	–
353.15 K, 24928 kPa	1180.3	–
353.15 K, 25940 kPa	1183.7	–
353.15 K, 26948 kPa	1186.9	–
353.15 K, 27955 kPa	1190.1	–
353.15 K, 28958 kPa	1193.2	–
353.15 K, 29961 kPa	1196.3	–
353.15 K, 30974 kPa	1199.3	–
353.15 K, 31977 kPa	1202.3	–
353.15 K, 32988 kPa	1205.2	–
353.16 K, 926 kPa	1057.5	–
353.16 K, 1696 kPa	1064.4	–
353.16 K, 2698 kPa	1072.4	–
353.16 K, 4742 kPa	1087.3	–
353.16 K, 5750 kPa	1093.9	–
353.16 K, 6761 kPa	1100.2	–
353.16 K, 7770 kPa	1106.2	–
353.16 K, 8771 kPa	1111.9	–
353.16 K, 9787 kPa	1117.4	–
353.16 K, 10798 kPa	1122.6	–
353.16 K, 11809 kPa	1127.7	–
353.16 K, 12819 kPa	1132.5	–
353.16 K, 13828 kPa	1137.2	–
353.16 K, 17868 kPa	1154.4	–
353.16 K, 21904 kPa	1169.8	–
353.16 K, 23917 kPa	1176.9	–
355.15 K, 313.8 kPa	–	0.077
358.15 K, 97.9 kPa	–	0.26
358.15 K, 136.4 kPa	–	0.186
358.15 K, 223.9 kPa	–	0.112
358.15 K, 232 kPa	–	0.107
358.15 K, 257.4 kPa	–	0.096
358.15 K, 415 kPa	–	0.057
360.15 K, 319.1 kPa	–	0.077
363.13 K, 14901 kPa	1116.7	–
363.14 K, 1456 kPa	1023.9	–
363.14 K, 1771 kPa	1027.2	–
363.14 K, 2776 kPa	1037.2	–
363.14 K, 3803 kPa	1046.4	–
363.14 K, 4829 kPa	1055	–
363.14 K, 5830 kPa	1062.7	–
363.14 K, 6835 kPa	1070	–
363.14 K, 7849 kPa	1076.9	–
363.14 K, 8855 kPa	1083.4	–
363.14 K, 9860 kPa	1089.5	–
363.14 K, 10872 kPa	1095.5	–
363.14 K, 11879 kPa	1101.1	–
363.14 K, 12892 kPa	1106.5	–
363.14 K, 13892 kPa	1111.7	–
363.14 K, 15912 kPa	1121.5	–
363.14 K, 16917 kPa	1126.2	–
363.14 K, 17931 kPa	1130.7	–
363.14 K, 18936 kPa	1135	–
363.14 K, 19943 kPa	1139.3	–
363.14 K, 20949 kPa	1143.4	–
363.14 K, 21954 kPa	1147.4	–
363.14 K, 22956 kPa	1151.2	–
363.14 K, 23961 kPa	1155	–
363.14 K, 25973 kPa	1162.3	–
363.14 K, 26975 kPa	1165.8	–
363.14 K, 27982 kPa	1169.3	–
363.14 K, 29991 kPa	1175.9	–
363.14 K, 31998 kPa	1182.3	–
363.15 K, 99.3 kPa	–	0.26
363.15 K, 138.4 kPa	–	0.186
363.15 K, 227.4 kPa	–	0.112
363.15 K, 235.7 kPa	–	0.107
363.15 K, 261.4 kPa	–	0.096
363.15 K, 422.2 kPa	–	0.057
363.15 K, 24969 kPa	1158.7	–
363.15 K, 28984 kPa	1172.6	–
363.15 K, 30992 kPa	1179.1	–
363.15 K, 33009 kPa	1185.4	–
363.15 K, 34010 kPa	1188.4	–
365.15 K, 324.3 kPa	–	0.077
368.15 K, 100.7 kPa	–	0.26
368.15 K, 140.5 kPa	–	0.186
368.15 K, 231 kPa	–	0.112
368.15 K, 239.3 kPa	–	0.107
368.15 K, 265.5 kPa	–	0.096
368.15 K, 429.3 kPa	–	0.057
370.15 K, 329.4 kPa	–	0.077
373.15 K, 102.2 kPa	–	0.26
373.15 K, 142.5 kPa	–	0.186
373.15 K, 234.6 kPa	–	0.112
373.15 K, 242.9 kPa	–	0.107
373.15 K, 269.6 kPa	–	0.096
373.15 K, 436.3 kPa	–	0.057
375.15 K, 334.6 kPa	–	0.077
